In PubChem BioAssay AID1159557 (GlaxoSmithKline (GSK), 2015):
Active and inactive are the calls of the source. The rule behind the calls is not given here.

Test system: Trypanosoma brucei growth inhibition
Assay: trypanosome proliferation inhibitors (AID 1159557);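 note: parasites exposed to compound for 48 h before the resazurin readout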

SMILES	IC50
O=C(Cc1ccc2c(c1)CCC2)Nc1n[nH]c(-c2ccccn2)n1	20000 nM
Fc1ccc(OC2CC(NCc3cccc4cn[nH]c34)C2)cc1C(F)(F)F (configuration not stated)	7900 nM
O=S(=O)(c1cccc(CSc2nnc(-c3ccc4c(c3)OCO4)o2)c1)N1CCOCC1	32000 nM
O=C(NC(c1ccc(Cl)cc1)c1cnccn1)C1CCN(C(=O)Nc2cccc(C(F)(F)F)c2)CC1 (configuration not stated)	13000 nM
Cc1ccc2nc(N(Cc3cccnc3)C(=O)CCc3ccccc3)sc2c1	13000 nM
Cn1nc([N+](=O)[O-])nc1N1CCCCC1	> 40000 nM (inactive)
CN(C)CCN(C)Cc1ccc(F)cc1NS(=O)(=O)c1ccc(Cl)c(Cl)c1	5000 nM
Cc1ccc2onc(Nc3ccnc(Nc4cccc(S(C)(=O)=O)c4)n3)c2c1	6300 nM
CC(C)c1nn(-c2nc(N)nc(-c3ccccn3)n2)c(N)c1C1CCCCC1	7900 nM
CCN(Cc1nc2ccc(C(=O)N3CCN(c4ncccn4)CC3)cc2[nH]1)C1CCCc2cccnc21 (configuration not stated)	2500 nM
Cc1nc(N2CCC(C(=O)N3CCC(O)(c4cccnc4)CC3)CC2)nc2ccc(C(C)C)cc12	20000 nM
CN(C)c1ccc(N)cc1CN(CC1CCCO1)S(C)(=O)=O (configuration not stated)	> 40000 nM (inactive)
Nc1nccc(-c2csc(Nc3ccc(Cl)cc3)n2)n1	> 40000 nM (inactive)
CCN(CC)S(=O)(=O)c1ccc(Cn2nc(C(=O)Nc3ccncn3)c3ccccc32)cc1	32000 nM
Cc1c([N+](=O)[O-])c(C(=O)Nc2sc3c(c2C#N)CCC(C)C3)nn1C (configuration not stated)	> 40000 nM (inactive)
NC(=O)c1ccc(-c2cccc(OCCN3CCN(C4CCCCC4)CC3)c2)cc1	16000 nM
Cc1nc2nc(C)c(Cc3ccc(C(C)C)cc3)c(=O)n2[nH]1	> 40000 nM (inactive)
Cc1ccc2c(c1)-c1onc(C(=O)N3CCCCC3c3cccnc3)c1CO2 (configuration not stated)	40000 nM

SMILES	IC50
O=C(Nc1ccc(Br)c(Cl)c1)Nc1ccc2c(c1)OCO2	7900 nM
O=C(CCCn1cnc([N+](=O)[O-])n1)Nc1cccc(Cl)c1	5000 nM
O=C(N1CCc2ccccc2CC1)C1(C(=O)N2CCC(n3c(=O)[nH]c4ncccc43)CC2)CC1	> 40000 nM (inactive)
CNc1cncc(C2CCCN2C(=O)Cc2coc3cc(C)ccc23)n1 (configuration not stated)	> 40000 nM (inactive)
COc1cccc(CN(C)Cc2nc(N)c3c(C)c(C)sc3n2)c1	5000 nM
Cc1[nH]nc2c1C(c1ccc(OCc3ccccc3F)cc1)SCC(=O)N2 (configuration not stated)	25000 nM
CCNc1cc(-c2ccccn2)nc(Nc2ccc(OC)cc2)n1	13000 nM
CCOc1ccc(CN(C)Cc2nc(N)nc(Nc3ccc(C)cc3)n2)cc1	2500 nM
Cc1nccn1C1CCCN(C(=O)c2cc3c(F)cccc3s2)C1 (configuration not stated)	> 40000 nM (inactive)
CN(C)CCN(C)Cc1ccc(Cl)cc1NS(=O)(=O)c1ccc(Cl)c(Cl)c1	7900 nM
O=C(Nc1ncc([N+](=O)[O-])s1)C1CC1	7900 nM
Cn1c(CC(=O)NNC(=O)c2ccc3ccccc3n2)nc2ccccc21	7900 nM
Cn1nc([N+](=O)[O-])nc1Oc1ccc(C(=O)c2ccccc2)cc1	20000 nM
CN1CCN(c2nc(-c3ccc(Cl)cc3)c3c(N)n(C)nc3n2)CC1	13000 nM
COc1ccccc1C1CC(c2ccc(NS(C)(=O)=O)cc2)=NN1C(=O)c1cccs1 (configuration not stated)	16000 nM
CC(C)COC(=O)Nc1ccc(N2CCC(CNS(=O)(=O)c3ccccc3)CC2)c(F)c1	2500 nM
CN(Cc1cc2ccccc2s1)c1ncc2c(N)nc(N)nc2n1	32000 nM
O=C(Nc1cccc(Cl)c1)Nc1ccc([N+](=O)[O-])cc1Cl	2500 nM

The remaining compounds from weak to strong by IC50, led by results:

IC50	SMILES
2000 nM	CCCn1c(NC(=O)Cc2ccc(Cl)cc2)nc2ccccc21
1300 nM	COc1ccc(CNc2cc(C3CC3)nc(-c3nccn3C)n2)cc1
1300 nM	COc1ccc(-c2nc3ncccc3o2)cc1NC(=O)c1cccs1
1000 nM	O=C(Nc1ccccc1)Nc1nc(-c2ccccn2)cs1
790 nM	O=c1cc(CSc2ccc(Cl)cc2)nc(-c2ccccn2)[nH]1
790 nM	O=C1COC(c2ccccc2)(c2ccccc2)CN1C1CCN(Cc2ccc(-n3ccnc3)cc2)CC1
790 nM	Oc1c(-c2n[nH]c(CCc3ccccc3)n2)ncc2cccnc12
630 nM	CC(=O)Nc1ccc(-c2ccnc(Nc3cccc(C#N)c3)n2)cc1
630 nM	CCOC(=O)c1cn[nH]c1S(=O)(=O)N1CCC1c1ccccc1 (configuration not stated)
500 nM	O=C1NCCn2ccc(Nc3nc(NC4CCC(O)CC4)ncc3Cl)c21 (configuration not stated)
500 nM	O=C(NCCc1nc(-c2ccc(F)c(F)c2)n[nH]1)C1CCCCC1
500 nM	O=C(c1ccccc1)N1CCC(C(=O)N2CCC(Oc3ccccc3Cl)CC2)CC1
400 nM	Cc1[nH]n2c(=O)c3c(nc2c1-c1ccc(F)cc1)CCCC3
400 nM	NCc1ccc2c(Cl)cc(Cl)c(O)c2n1
400 nM	NCC(Cc1ccccc1)NC(=O)c1cnc(-c2c[nH]c3ncccc23)s1 (configuration not stated)
400 nM	C[C@@H](Oc1cc(-n2cnc3ccc(C(O)CO)cc32)sc1C(N)=O)c1ccccc1C(F)(F)F (some centres not stated)

IC50	SMILES
400 nM	Cn1ccnc1CN1CCc2[nH]cnc2C1c1ccccc1OCc1ccccc1 (configuration not stated)
320 nM	CCC(=O)Nc1ccccc1C(=O)Nc1ccccn1
320 nM	O=C(NNC(=O)c1ccccn1)c1ccc(-c2ccccc2)cc1
320 nM	Cc1ccccc1NS(=O)(=O)c1ccc2[nH]cc(C(=O)NC3CCCC(C)C3C)c(=O)c2c1 (configuration not stated)
250 nM	O=C(NCCc1csc(-c2ccc(F)cc2)n1)c1cccs1
250 nM	O=C(Nc1ccccc1C(=O)Nc1ccccn1)c1ccco1
250 nM	C[C@@H](Oc1cc(-n2cnc3cc(N)ccc32)sc1C(N)=O)c1ccccc1Cl
200 nM	CC(C)CC(=O)Nc1cc(C2CC2)nn1-c1nc2c(c(=O)[nH]1)CCCC2
200 nM	CC1CCCN(S(=O)(=O)c2ccc(C(=O)Nc3nc(-c4ccccn4)cs3)cc2)C1 (configuration not stated)
160 nM	Cc1[nH]n2c(=O)c3c(nc2c1-c1ccc(Cl)cc1)CCCC3
160 nM	CS(=O)(=O)c1ccc(Nc2nccc(-c3cnn4ncccc34)n2)cc1
130 nM	Cc1ncsc1CNc1cnc(-c2ccc3c(c2)OCCO3)c(-c2cnn(C)c2)c1
79 nM	CC(C)c1cc(Nc2cc(Cc3ccccc3)nc(NC3CCC(O)CC3)n2)n[nH]1 (configuration not stated)
79 nM	NS(=O)(=O)c1ccc(Nc2nccc(-c3cnn4ncccc34)n2)cc1
40 nM	NC(N)=Nc1nc(-c2ccc(NC(N)=NCCN3CCCC3)cc2)cs1
